Experimental data reported in publication PMC10529594, “Strasseriolides display in vitro and in vivo activity against trypanosomal parasites and cause morphological and size defects in Trypanosoma cruzi” (PLOS Neglected Tropical Diseases, 2023).
pEC50: −log10 of the molar value. Several values for one entry are separate records, joined by “and”; a condition that tells them apart may be missing. Equal entries are not always repeated.

Experiments:
[1] = test system: L6 rat myoblast cells; assay: Cytotoxicity evaluation in L6 cells (resazurin); assay type: cell-based; settings: Rattus norvegicus, Myoblast; 72 h, resazurin; read-out: EC50 L6
Protocol: One hundred microliters of supplemented RPMI 1640 medium containing the compounds and controls were added to L6 rat myoblast cells previously seeded (4,000 cells per well) in a 96-well microplate. After 72 hours at 37°C the viable cell number was determined by resazurin reduction. 20 μL of resazurin at 0.11 mg/mL in PBS 1X were added to each well and incubated in the dark for 2 hours at 37°C. Cell viability was estimated by measuring the final fluorescence at 570–590 nm in a Tecan Infinite F200 plate reader.

[2] = test system: human macrophage THP-1 cells; assay: Cytotoxicity in THP-1 macrophages (MTT); assay type: cell-based
Protocol: Cellular toxicity of compounds in the human macrophage host TPH-1 cell line was determined using the colorimetric MTT-based assay as previously described.
THP-1 cells were seeded at 3 × 10^4 cells/well in 96-well plates and were differentiated to macrophages with 20 ng/ml of PMA treatment for 48 h followed by 24 h incubation in fresh medium. Strasseriolides were added at increasing concentrations up to 50 μM and cells were further incubated at 37°C for 72 h. 10 μL of MTT (5 mg/mL in PBS) were added to each well, and plates were incubated for an additional period of 8 h at 37°C. Formazan crystals were dissolved by adding 50 μL of 20% SDS and absorbance was read at 595 nm using a microplate reader.

[3] = test system: T. cruzi epimastigotes; assay: FACS analysis of T. cruzi epimastigotes (cell cycle, size and complexity); assay type: cell-based, Trypanosoma cruzi; settings: for Foward Scatter (FSC) - Geometric Mean, single experiment / Foward Scatter (FSC) - Geometric Mean, Average / size reduction with respect to untreated parasites: 72 h
Protocol: FACS analysis was used to study cell cycle progression and cellular parameters such as size and complexity. 5 × 10^6 T. cruzi epimastigotes were harvested by centrifugation at 1,000×g and 4°C after 72 hours of incubation in a 6-well plate in the presence and in absence of test compounds. Pellets of cells were washed with 5 mL of PBS and fixed in a solution of 70% ice-cold ethanol/PBS at -20°C overnight. Cells were then collected by centrifugation, washed with PBS and stained with 40 μg/mL of propidium iodide in PBS containing 10 μg/mL of RNase A at 37°C for 30 minutes. Fluorescence was monitored with a Becton Dickinson FACSCalibur using BD CellQuest Pro version 4.0.2 software with a total of 10,000 events acquired for each sample. The different cell populations as well as mean cellular parameters were determined by FlowJo software.

[4] = test system: T. cruzi Tulahuen C4 epimastigotes; assay: T. cruzi epimastigotes growth inhibition assay (resazurin); assay type: cell-based, Trypanosoma cruzi; settings: 72 h
Protocol: (§1) The Trypanosoma cruzi Tulahuen strain used is a genetically modified strain that expresses the Escherichia coli β-galactosidase gene, lacZ [31]. It was kindly supplied by Marcel Kaiser (Swiss Tropical and Public Health Institute). The T. cruzi Tulahuen C4 strain was cultured in RPMI-1640 supplemented with 10% inactivated FBS (iFBS), 1.7 mM L-glutamine, 100 U/mL penicillin, and […] at 37°C and 5% CO2. L6 rat skeletal muscle cells were purchased from ATCC (reference CRL-1458) and used as host cells for infection with transgenic T. cruzi trypomastigotes. Epimastigotes were obtained by differentiation in LIT medium with 10% iFBS at 28°C from trypomastigote forms.
A resazurin-based assay was set up in 96-well microplates containing 10 μL of test compound at concentrations ranging from 0.39 to 200 μM and log phase parasites seeded at 2 × 10^5 cells per well in a final volume of 100 μL. Maximum DMSO percentage in the well was 0.2%. Positive and negative growth controls were included. Following 72 hour incubation at 28°C with orbital shaking, 10 μL of resazurin solution were added to each well and the plates were returned to the incubator for 4 hours. Resazurin reduction was correlated to cell viability by fluorescence measurement with excitation and emission wavelength bands centered at 550 and 590 nm, respectively, in a Tecan Infinite 200 microplate reader.

[5] = test system: T. cruzi Tulahuen C4 intracellular amastigotes; assay: β-D-galactosidase transgenic T. cruzi assay (intracellular amastigotes in L6 cells, CPRG); assay type: cell-based; settings: Trypanosoma cruzi
Protocol: as §1
A Thermo Scientific Multidrop Combi dispenser was used to dispense 55 μL of T. cruzi infected L6 cells (2 ×10^3 cells per well) into 384-well Corning assay plates already containing 5 μL of each compound at concentrations ranging from 0.0015 to 50 μM and controls. The plates were incubated at 37°C for 96 hours upon which 15 μL of lysis buffer (0.5 mM CPRG, 0.5% NP40) were added to each well and further incubated for 4 hours in the dark. Absorbance at 585 nm was measured in a Perkin Elmer Envision plate reader.

[6] = test system: L. donovani MHOM/ET/67/HU3 transgenic intracellular amastigotes; assay: L. donovani intracellular amastigote assay (luciferase, THP-1 macrophages); assay type: cell-based; settings: Leishmania donovani, THP-1, 72 h, read-out: EC50 L. donovani
[7] = 72-hour drug exposure, FACS with PI staining, EC30, average
[8] = 72-hour drug exposure, FACS with PI staining, EC30, single replicates
[9] = 72-hour drug exposure, FACS with PI staining, EC70, average
[10] = 72-hour drug exposure, FACS with PI staining, EC70, single replicates

## C/C1=C\[C@H](C)[C@@H](O)C[C@@H](O)/C(C)=C/[C@H](C)C[C@@H](C)CC[C@@H]([C@@H](C)C(=O)O)OC(=O)[C@@H](C)C1 [Strasseriolide D, strasseriolide D]
[1]
  pEC50: < 4.00
[2]
  Selectivity index intracellular L. donovani versus THP-1 cells: > 37
[2]; Homo sapiens, THP-1, 72 h, MTT, read-out: EC50 THP-1
  pEC50: < 3.30
[3]; [7]
  % Cells G1, Average: 48.0485%
  % Cells G2/M, Average: 33.3241%
  % Cells S, Average: 15.9233%
  % Cells post G2/M, Average: 0.01106%
  % Cells sub-G1, Average: 2.693%
[3]; [8]
  % Cells G1, individual replicates: 50.4058% and 45.6911%
  % Cells G2/M, individual replicates: 32.7574% and 33.8908%
  % Cells S, individual replicates: 14.3321% and 17.5145%
  % Cells post G2/M, individual replicates: 0.6783% and -0.6562%
  % Cells sub-G1, individual replicates: 1.8263% and 3.56%
[3]; [9]
  % Cells G1, Average: 50.7294%
  % Cells G2/M, Average: 37.5216%
  % Cells S, Average: 12.1278%
  % Cells sub-G1, Average: 1.9646%
[3]; [10]
  % Cells G1, individual replicates: 49.2764% and 52.1825%
  % Cells G2/M, individual replicates: 34.0219% and 41.0212%
  % Cells S, individual replicates: 15.873% and 8.383%
  % Cells post G2/M, individual replicates: -1.15% and -3.537%
  % Cells sub-G1, individual replicates: 1.978% and 1.951%
[3]; EC30
  Foward Scatter (FSC) - Geometric Mean, single experiment: 81.9 and 80.4
[3]; EC30, control 96.65
  Foward Scatter (FSC) - Geometric Mean, Average: 81.15
[3]; EC70
  Foward Scatter (FSC) - Geometric Mean, single experiment: 77.8 and 72.2
[3]; EC70, control 96.65
  Foward Scatter (FSC) - Geometric Mean, Average: 75
[3]; at EC30
  size reduction with respect to untreated parasites: 16%
[3]; at EC70
  size reduction with respect to untreated parasites: 24%
[4]; from dose-response curve
  EC30, epimastigotes: 36 µM
  EC70, epimastigotes: 68 µM
[4]; Trypanosoma cruzi, TULAHUEN, Tulahuen C4, 72 h, resazurin
  pEC50: 4.37
[5]; TULAHUEN, L6, T. cruzi amastigotes, 96-hour treatment, 0.00152588 µM, read-out: Growth inhibition (%) Average
  inhibition at 0.00152588 µM: 7.88%
[5]; TULAHUEN, L6, T. cruzi amastigotes, 96-hour treatment, 0.00305176 µM, read-out: Growth inhibition (%) Average
  inhibition at 0.00305176 µM: 6.33%
[5]; TULAHUEN, L6, T. cruzi amastigotes, 96-hour treatment, 0.00610352 µM, read-out: Growth inhibition (%) Average
  inhibition at 0.00610352 µM: 2.28%
[5]; TULAHUEN, L6, T. cruzi amastigotes, 96-hour treatment, 0.012207 µM, read-out: Growth inhibition (%) Average
  inhibition at 0.012207 µM: 4.26%
[5]; TULAHUEN, L6, T. cruzi amastigotes, 96-hour treatment, 0.0244141 µM, read-out: Growth inhibition (%) Average
  inhibition at 0.0244141 µM: 4.84%
[5]; TULAHUEN, L6, T. cruzi amastigotes, 96-hour treatment, 0.0488281 µM, read-out: Growth inhibition (%) Average
  inhibition at 0.0488281 µM: 2.75%
[5]; TULAHUEN, L6, T. cruzi amastigotes, 96-hour treatment, 0.0976562 µM, read-out: Growth inhibition (%) Average
  inhibition at 0.0976562 µM: 2.22%
[5]; TULAHUEN, L6, T. cruzi amastigotes, 96-hour treatment, 0.195312 µM, read-out: Growth inhibition (%) Average
  inhibition at 0.195312 µM: 7.23%
[5]; TULAHUEN, L6, T. cruzi amastigotes, 96-hour treatment, 0.390625 µM, read-out: Growth inhibition (%) Average
  inhibition at 0.390625 µM: 4.8%
[5]; TULAHUEN, L6, T. cruzi amastigotes, 96-hour treatment, 0.78125 µM, read-out: Growth inhibition (%) Average
  inhibition at 0.78125 µM: 4.2%
[5]; TULAHUEN, L6, T. cruzi amastigotes, 96-hour treatment, 1.5625 µM, read-out: Growth inhibition (%) Average
  inhibition at 1.5625 µM: 8.54%
[5]; TULAHUEN, L6, T. cruzi amastigotes, 96-hour treatment, 3.125 µM, read-out: Growth inhibition (%) Average
  inhibition at 3.125 µM: 21.2%
[5]; TULAHUEN, L6, T. cruzi amastigotes, 96-hour treatment, 6.25 µM, read-out: Growth inhibition (%) Average
  inhibition at 6.25 µM: 66.1%
[5]; TULAHUEN, L6, T. cruzi amastigotes, 96-hour treatment, 12.5 µM, read-out: Growth inhibition (%) Average
  inhibition at 12.5 µM: 100%
[5]; TULAHUEN, L6, T. cruzi amastigotes, 96-hour treatment, 25 µM, read-out: Growth inhibition (%) Average
  inhibition at 25 µM: 112%
[5]; TULAHUEN, L6, T. cruzi amastigotes, 96-hour treatment, 50 µM, read-out: Growth inhibition (%) Average
  inhibition at 50 µM: 113%
[5]; Tulahuen C4 in L6 cells, 96 h, CPRG
  pEC50: 5.25
[6]
  pEC50: 4.87
